Our source for the EC50 and Ki values is US20240374573A1, “IMIDAZOLE CONTAINING COMPOUNDS, DERIVATIVES THEREFORE, AND USES THEREOF” (AglaeaPharma Inc., priority 2023, published 2024).

Where two headings read alike, the source gives them in different places. Some results are limits rather than exact numbers.

The target of assay [1] is T1, α2AAR (α2A-adrenergic receptor) (Homo sapiens, UniProt P08913).
T1 construct: expressed in transfected cells; host or cells: HEK293
T1 sequence (P08913 1-465): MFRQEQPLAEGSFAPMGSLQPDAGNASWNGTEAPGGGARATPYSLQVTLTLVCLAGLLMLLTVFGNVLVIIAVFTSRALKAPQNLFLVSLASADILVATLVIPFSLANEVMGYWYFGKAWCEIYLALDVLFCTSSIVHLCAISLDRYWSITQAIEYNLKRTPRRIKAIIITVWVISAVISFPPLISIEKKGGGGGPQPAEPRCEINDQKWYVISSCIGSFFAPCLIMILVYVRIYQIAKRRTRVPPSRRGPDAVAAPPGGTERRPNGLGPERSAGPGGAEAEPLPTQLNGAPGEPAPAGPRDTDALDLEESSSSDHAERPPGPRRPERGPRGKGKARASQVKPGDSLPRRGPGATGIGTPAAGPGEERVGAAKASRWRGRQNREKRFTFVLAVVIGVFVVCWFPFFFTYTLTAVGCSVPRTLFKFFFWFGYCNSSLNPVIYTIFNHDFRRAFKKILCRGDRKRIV
The assay is described as follows: α2AAR FLIPR assay (agonist activity). The class given is cell-based. On the procedure:
This experimental protocol involved cell seeding and a FLIPR assay using the α2AAR (α2A-adrenergic receptor) cell line hosted in HEK293 cells. […] On Day 1, the cell seeding process started with the removal of the culture medium, followed by rinsing the cells with DPBS (21-031-CVC, Corning). […] The cells were detached, resuspended in growth media, and centrifuged at room temperature at 1000 rpm for 5 minutes. After discarding the supernatant, the cell pellet was resuspended in growth media to a concentration of 10× 10^5 cells per mL. This suspension was added to 384-well plates (19-Jul-38, Greiner) at 20 μL per well and incubated overnight at 37° C. in 5% CO2.
A 250 mM Probenecid solution was prepared in this buffer. The Fluo-4 Direct™ Loading Buffer was made by dissolving Fluo-4 Direct™ crystals (F10471, Invitrogen) in the FLIPR Assay Buffer and adding Probenecid. The buffer was then vortexed and allowed to stand for over 5 minutes, shielded from light. For the FLIPR procedure, testing compounds for agonist activite were serially diluted and transferred to a 384-well compound plate (25-Jan-39, Greiner). The cell plate was then treated with 2× Fluo-4 Direct™ loading buffer and incubated for 50 minutes at 37° C. in a 5% CO2 atmosphere, followed by 10 minutes at room temperature. Subsequently, the FLIPR assay buffer was added to the compound plate, which is then centrifuged.
The cell plate was analyzed in the FLIPR Tetra+ System for fluorescence signals. For the agonist test, reference compounds were added to the cell plates, and fluorescence was measured. The “Max-Min” calculation began from Read 1 to the maximum allowed. The data were analyzed using Prism software to calculate activation percentage for agonists and inhibition percentage for antagonists. The results were then fitted using specific models to determine EC50 for agonists.
The experimental protocol utilized various reagents and apparatus, including Penicillin/Streptomycin (100×) (SV30010, Hyclone), Poly-L-lysine hydrobromide (P1399, Sigma), and different types of 384-well plates such as the 384-Well PP 2.0 Microplate (PP-0200, LABCYTE) and 384 well Low Dead Volume Microplate (LP-0200, LABCYTE). The use of specific reference compounds like UK14304 was also integral to the assay.

In assay [2] the target is T2, α2AAR (Homo sapiens, UniProt P08913).
T2 construct: host or cells: HEK293 (membranes)
T2 sequence (P08913 1-465): T1 sequence (P08913 1-465)
The assay is described as follows: α2AAR binding assay ([3H]-RX 821002 radioligand). The following applies: [3H]-RX 821002 0.5 nM, HEK293 membranes; read-out: α2A affinity (Ki). The protocol: The α2AR Binding Assay was conducted using a stable HEK293 cell line, specifically constructed by WuXi AppTec for targeting α2AAR. […] Both the assay and wash buffers consist of 50 mM Tris-HCl at a pH of 7.4 (Tris base, Sigma, T1503-1 KG).
The procedure initiated with the preparation of test compounds and a reference compound, yohimbine (Sigma, Y3125), through an 8-point 4-fold serial dilution, transferring 1 μL of each to the assay plate. […] After scaling, the plates were agitated at room temperature for one hour. Subsequently, the Unifilter-96 GF/C filter plates were pre-soaked with 0.3% PEI (Sigma, P3143) for at least half an hour. The reaction mixtures were then filtered and washed four times with cold wash buffer using a Perkin Elmer Cell harvester. Post-filtration, the plates were dried at 50° C. for one hour. […] The top of the plates was then sealed with TopSeal-A sealing film. The trapped 3H was quantified using a Perkin Elmer MicroBeta2 Reader. […] Finally, the data were analyzed with Prism 5.0 software, employing the “log (inhibitor) vs. response-Variable slope” model for data fitting. This comprehensive process ensured precise assessment of the binding affinity of compounds to the α2AAR.

The mark [3] stands for this setting: FLIPR, α2AAR cell line hosted in HEK293 cells, read-out: α2A agonist activity (EC50).
The mark [4] stands for this setting: α2A agonist activity (EC50, nM).

Regarding `CONC(=O)c1cccc(C(c2c[nH]cn2)c2cccc(C)c2C)c1` (single isomer, unassigned) [1-A], in assay [1] (setting [3]), the EC50 (usually the concentration at which the effect is half-maximal) was greater than 1000 nM. The same measure, in the same setting: under `Cc1cccc(C(c2cccc(C(N)=O)c2)c2c[nH]cn2)c1C` (single isomer, unassigned) [5-A] stands greater than 1000 nM; under `Cc1cccc(C(c2cccc(NC(=O)CC#N)c2)c2c[nH]cn2)c1C` (single isomer, unassigned) [10-A], greater than 1000 nM; under `CNC(=O)NCCOCCOCC(c1c[nH]cn1)c1cccc(C)c1C` (single isomer, unassigned) [17-A], greater than 1000 nM. In the case of `Cc1cccc(C(c2cccc(C(=O)NC3CCOCC3)c2)c2c[nH]cn2)c1C` (single isomer, unassigned) [121-A], in assay [1] (setting [3]), the EC50 is greater than 1000 nM. `Cc1cccc(C(Cc2ccc(C(C)C(=O)O)cc2)c2c[nH]cn2)c1C` (single isomer, unassigned) [174-A]: in assay [1] (setting [3]), the EC50 is greater than 1000 nM. The same measure, in the same setting: under `Cc1cccc(C(Cc2ccc(C(C)C(=O)O)cc2)c2c[nH]cn2)c1C` (single isomer, unassigned) [174-C] stands 250 to 1000 nM; under `Cc1cccc(C(c2cccc(C(=O)NCCO)c2)c2c[nH]cn2)c1C` (stereo not drawn) [compound 2], 10 to 50 nM. On the same count and under the same terms, next, `COCCOCCNC(=O)c1cccc(C(c2c[nH]cn2)c2cccc(C)c2C)c1` (stereo not drawn) [compound 3]: 10 to 50 nM. On the same count and under the same terms, next, `Cc1cccc(C(c2cccc(OCCNC(=O)Nc3ccncn3)c2)c2c[nH]cn2)c1C` (stereo not drawn) [compound 4]: 50 to 250 nM; `Cc1cccc(C(c2cccc(C(N)=O)c2)c2c[nH]cn2)c1C` (stereo not drawn) [compound 5]: 10 to 50 nM.

Take `CNC(=O)c1cccc(C(c2c[nH]cn2)c2cccc(C)c2C)c1` (stereo not drawn) [compound 6]: the EC50 in assay [1] (setting [4]) was in the range of 10 to 50 nM. As to `CONC(=O)c1cccc(C(c2c[nH]cn2)c2cccc(O)c2C)c1` (stereo not drawn) [compound 7], the concentration giving a half-maximal response (EC50) in assay [1] (setting [3]) lay within 250 to 1000 nM. Same read-out and setting: next, `CONC(=O)c1cccc(C(c2c[nH]cn2)c2cccc(C)c2C)c1O` (stereo not drawn) [compound 8]: 10 to 50 nM; `Cc1cccc(C(c2c[nH]cn2)c2cccc(C(N)=O)c2O)c1C` (stereo not drawn) [compound 9]: 10 to 50 nM. As for `Cc1cccc(C(c2cccc(NC(=O)CC#N)c2)c2c[nH]cn2)c1C` (stereo not drawn) [compound 10], the EC50 in assay [1] (setting [3]) was in the range of 10 to 50 nM. On the same count and under the same terms, next, `Cc1cccc(C(c2cccc(C(=O)O)c2)c2c[nH]cn2)c1C` (stereo not drawn) [compound 11]: 250 to 1000 nM; `Cc1cccc(C(c2ccc(C(=O)O)cc2)c2c[nH]cn2)c1C` (stereo not drawn) [compound 12]: greater than 1000 nM; `Cc1cccc(C(c2ccc(O)cc2)c2c[nH]cn2)c1C` (stereo not drawn) [compound 13]: greater than 1000 nM. The same measure, in the same setting: next, `CNC(=O)Nc1ccc(C(c2c[nH]cn2)c2cccc(C)c2C)cc1` (stereo not drawn) [compound 14]: greater than 1000 nM; `COCCOCCOCCOCCOCCOc1ccc(C(c2c[nH]cn2)c2cccc(C)c2C)cc1` (stereo not drawn) [compound 15]: greater than 1000 nM; `COCCOCCOCCOCC(c1c[nH]cn1)c1cccc(C)c1C` (stereo not drawn) [compound 16]: 10 to 50 nM. The same measure, in the same setting: next, `CNC(=O)NCCOCCOCC(c1c[nH]cn1)c1cccc(C)c1C` (stereo not drawn) [compound 17]: 10 to 50 nM.

For `Cc1cccc(C(COCCOCCNS(C)(=O)=O)c2c[nH]cn2)c1C` (stereo not drawn) [compound 18], in assay [1] (setting [3]), the half-maximal effective concentration (EC50) is 10 to 50 nM. Same read-out and setting: under `Cc1cccc(C(COCCOCCN)c2c[nH]cn2)c1C` (stereo not drawn) [compound 19] stands 50 to 250 nM; under `COCCOCCOCCOCCOCCOCCCC(c1c[nH]cn1)c1cccc(C)c1C` (stereo not drawn) [compound 21], greater than 1000 nM. On the same count and under the same terms, next, `Cc1cccc(C(c2cccc(C(=O)N3CCOCC3)c2)c2c[nH]cn2)c1C` (stereo not drawn) [compound 23]: 250 to 1000 nM.

`CNCCOCCOCC(c1c[nH]cn1)c1cccc(C)c1C` (stereo not drawn) [compound 24] yielded an EC50 in assay [1] (setting [4]) of 250 to 1000 nM. Regarding `CC(=O)NCCOCCOCC(c1c[nH]cn1)c1cccc(C)c1C` (stereo not drawn) [compound 25], the concentration for a half-maximal effect (EC50) in assay [1] (setting [3]) is 50 to 250 nM. Same read-out and setting: next, `Cc1cccc(C(c2cccc(C(=O)N(C)C)c2)c2c[nH]cn2)c1C` (stereo not drawn) [compound 33]: 50 to 250 nM; `Cc1cccc(C(c2c[nH]cn2)c2ccccc2C(N)=O)c1C` (stereo not drawn) [compound 34]: greater than 1000 nM. For `CONC(=O)c1cccc(C(c2c[nH]cn2)c2cccc(Cl)c2Cl)c1` (stereo not drawn) [compound 35], the EC50 in assay [1] (setting [3]) lay in the range of 50 to 250 nM. In the case of `CONC(=O)c1cccc(C(c2c[nH]cn2)c2cccc(Cl)c2C)c1` (stereo not drawn) [compound 36], in assay [1] (setting [3]), the EC50 fell in the range of 50 to 250 nM. On the same count and under the same terms, under `COCCOCCOCC(c1c[nH]cn1)c1cccc(C)c1C` (stereo not drawn) [compound 37] stands 50 to 250 nM; under `Cc1cccc(C(c2c[nH]cn2)c2cccc(C(N)=O)c2Cl)c1C` (stereo not drawn) [compound 38], 10 to 50 nM.

On to `Cc1cccc(C(c2cccc(N)c2)c2c[nH]cn2)c1C` (stereo not drawn) [compound 39], for which, in assay [1] (setting [3]), the EC50 was 50 to 250 nM. The same measure, in the same setting: next, `CONC(=O)c1cccc(C(c2c[nH]cn2)c2cccc(C(F)(F)F)c2C)c1` (stereo not drawn) [compound 52]: 250 to 1000 nM; `Cc1cccc(C(c2cccc(Nc3ccccn3)c2)c2c[nH]cn2)c1C` (stereo not drawn) [compound 59]: 50 to 250 nM. Consider `Cc1cccc(C(c2c[nH]cn2)c2cccc(S(N)(=O)=O)c2O)c1C` (stereo not drawn) [compound 150], for which the EC50 in assay [1] (setting [3]) was 50 to 250 nM. On the same count and under the same terms, next, `Cc1cccc(C(CN2CCC(NS(C)(=O)=O)CC2)c2c[nH]cn2)c1C` (stereo not drawn) [compound 168]: 50 to 250 nM. The same measure, in the same setting: next, `Cc1cccc(C(c2cccc(NC(=O)C3C4CC5CC(C4)CC3C5)c2)c2c[nH]cn2)c1C` (stereo not drawn) [compound 170]: 50 to 250 nM; `Cc1cccc(C(c2cccc(NS(=O)(=O)C[C@@H]3CCCO3)c2)c2c[nH]cn2)c1C` (stereo partly drawn) [compound 172]: 10 to 50 nM; `Cc1cccc(C(c2cccc(NS(=O)(=O)CC3CCCCO3)c2)c2c[nH]cn2)c1C` (stereo not drawn) [compound 173]: 10 to 50 nM.

Consider `Cc1cccc(C(c2cccc(NC(=O)CC3CCCCC3)c2)c2c[nH]cn2)c1C` (stereo not drawn) [compound 178], for which the EC50 in assay [1] (setting [3]) lay within 10 to 50 nM. `Cc1cccc(C(NC2=NCCS2)c2cccc(NS(C)(=O)=O)c2)c1C` (stereo not drawn) [compound 504]: the Ki (commonly a dissociation constant, usually derived from enzyme kinetics or from competition with a known ligand) in assay [2] was in the range of 50 to 250 nM. Still for that read-out and setting: next, `Cc1cccc(C(NC2=NCCS2)c2cccc(NC(=O)CC3CCOCC3)c2)c1C` (stereo not drawn) [compound 507]: 10 to 50 nM.

For `CONC(=O)c1cccc(C(NC2=NCCS2)c2ccccc2OC)c1` (stereo not drawn) [compound 508], the Ki in assay [2] is 250 to 1000 nM. `Cc1cccc(C(Cc2cccc(NS(C)(=O)=O)c2)C2=NCCN2)c1C` (stereo not drawn) [compound 510]: in assay [2], the Ki was 50 to 250 nM. Still for that read-out and setting: under `CONC(=O)c1cccc(CC(NC2=NCCS2)c2cccc(C)c2C)c1` (stereo not drawn) [compound 511] stands less than 10 nM; under `CONC(=O)c1cccc(CC(NC2=NCCS2)c2cccc(Cl)c2Cl)c1` (stereo not drawn) [compound 512], less than 10 nM; under `CONC(=O)c1cc(CC(NC2=NCCS2)c2ccccc2OC)ccn1` (stereo not drawn) [compound 513], less than 10 nM.

As for `COc1ccccc1C(NC1=NCCS1)c1cccc(NC(=O)CC2CCOCC2)c1` (stereo not drawn) [compound 514], in assay [2], the Ki fell in the range of 50 to 250 nM. `Cc1cccc(C(Cc2ccc(NS(C)(=O)=O)cc2)C2=NCCN2)c1C` (stereo not drawn) [compound 518]: in assay [2], the inhibition constant (Ki) lay in the range of 50 to 250 nM.

As for `COCCOCc1cccc(Cl)c1NC1=NCCN1` [compound 520], the Ki in assay [2] fell in the range of 250 to 1000 nM.
